Measurements from US10499642B2, “Isoxazoline-substituted benzamides and analogues as insecticides” (SYNGENTA PARTICIPATIONS AG, priority 2015, dated 2019).

Tests used:
Assay type in all cases: in vivo
Spodoptera littoralis = Spodoptera littoralis (Egyptian cotton leaf worm) cotton leaf disc test; details: foliar, 72 h, read-out: control (at least one of mortality, anti-feedant effect, and growth inhibition)
Summary of the method: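 Five first-instar larvae per disc were placed on dried, sprayed cotton leaf discs held on agar. Test solutions were aqueous, made from 10′000 ppm DMSO stocks. At day 3, control was counted when mortality, feeding deterrence or growth inhibition exceeded the untreated discs.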

Plutella xylostella = Plutella xylostella (diamond back moth) artificial diet test; details: 120 h, read-out: effect in at least one of the two categories (mortality or growth inhibition)
Summary of the method: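 At a 200 ppm rate, test solutions were applied to artificial diet and allowed to dry before second-instar larvae were added. Five days later, larval mortality and growth inhibition were rated against untreated samples.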

Diabrotica Balteata = experiment: Diabrotica balteata (corn root worm) maize sprout test; details: 96 h, read-out: effect in at least one of the two categories (mortality or growth inhibition)
Summary of the method: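 Scoring covered both mortality and growth inhibition relative to untreated controls, 4 days post-infestation. Test solutions at 200 ppm, diluted in water from 10′000 ppm DMSO stocks, were sprayed onto agar-held maize sprouts, which after drying received 6 to 10 L2 larvae each well.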

Thrips tabaci = Thrips tabaci (onion thrips) sunflower leaf disc test; details: foliar, 144 h
Description: Thrips tabaci (Onion Thrips):
(§1) Sunflower leaf discs were placed on agar in 24-well microtiter plates and sprayed with aqueous test solutions prepared from 10′000 ppm DMSO stock solutions. After drying the leaf discs were infested with a thrips population of mixed ages. The samples were assessed for mortality 6 days after infestation.

Tetranychus urticae = Tetranychus urticae (two-spotted spider mite) bean leaf disc test; details: foliar, 192 h
Description: Tetranychus urticae (Two-Spotted Spider Mite):
as §1, with “Bean” for “Sunflower”, “discs” for “discs were placed”, “were” for “and”, “mite” for “thrips”, “on mixed population (mobile stages) 8” for “6”

Myzus persicae = Myzus persicae (green peach aphid) sunflower leaf disc test; details: foliar, 144 h
Description: Myzus persicae (Green Peach Aphid):
Sunflower leaf discs were placed on agar in a 24-well microtiter plate and sprayed with test solutions at an application rate of 200 ppm. After drying, the leaf discs were infested with an aphid population of mixed ages. After an incubation period of 6 days after treatment, samples were checked for mortality. The following compounds gave at least 80% mortality of Myzus persicae: […]

Cc1cc(C2=NO[C@@](c3cc(Cl)c(Cl)c(Cl)c3)(C(F)(F)F)C2)ccc1C(=O)NC1CC(OCC(F)F)=NO1 (stereo partly drawn) [Compound A127, N-[3-(2,2-difluoroethoxy)-4,5-dihydroisoxazol-5-yl]-2-methyl-4-[(5S)-5-(3,4,5-trichlorophenyl)-5-(trifluoromethyl)-4H-isoxazol-3-yl]benzamide]
≥ 80%: percent control (mortality, anti-feedant effect or growth inhibition) at 200 ppm (Spodoptera littoralis) | percent effect (mortality or growth inhibition) at 200 ppm (Plutella xylostella) | percent effect (mortality or growth inhibition) at 200 ppm (Diabrotica Balteata) | mortality at 200 ppm (Thrips tabaci) | mortality at 200 ppm (Tetranychus urticae) | mortality at 200 ppm (Myzus persicae)

Cc1cc(C2=NO[C@@](c3cc(Cl)cc(Cl)c3)(C(F)(F)F)C2)ccc1C(=O)NC1CC(OCC(F)F)=NO1 (stereo partly drawn) [Compound A128]
≥ 80%: percent control (mortality, anti-feedant effect or growth inhibition) at 200 ppm (Spodoptera littoralis) | percent effect (mortality or growth inhibition) at 200 ppm (Plutella xylostella) | percent effect (mortality or growth inhibition) at 200 ppm (Diabrotica Balteata) | mortality at 200 ppm (Thrips tabaci) | mortality at 200 ppm (Tetranychus urticae) | mortality at 200 ppm (Myzus persicae)

Cc1cc(C2=NO[C@@](c3cc(Cl)c(Cl)c(Cl)c3)(C(F)(F)F)C2)ccc1C(=O)NC1CC(OCC(F)(F)F)=NO1 (stereo partly drawn) [Compound A129, 2-methyl-4-[(5S)-5-(3,4,5-trichlorophenyl)-5-(trifluoromethyl)-4H-isoxazol-3-yl]-N-[3-(2,2,2-trifluoroethoxy)-4,5-dihydroisoxazol-5-yl]benzamide]
≥ 80%: percent control (mortality, anti-feedant effect or growth inhibition) at 200 ppm (Spodoptera littoralis) | percent effect (mortality or growth inhibition) at 200 ppm (Plutella xylostella) | percent effect (mortality or growth inhibition) at 200 ppm (Diabrotica Balteata) | mortality at 200 ppm (Thrips tabaci) | mortality at 200 ppm (Tetranychus urticae) | mortality at 200 ppm (Myzus persicae)

Cc1cc(C2=NO[C@@](c3cc(Cl)cc(Cl)c3)(C(F)(F)F)C2)ccc1C(=O)NC1CC(OCC(F)(F)F)=NO1 (stereo partly drawn) [Compound A130, 4-[(5S)-5-(3,5-dichlorophenyl)-5-(trifluoromethyl)-4H-isoxazol-3-yl]-2-methyl-N-[3-(2,2,2-trifluoroethoxy)-4,5-dihydroisoxazol-5-yl]benzamide]
≥ 80%: percent control (mortality, anti-feedant effect or growth inhibition) at 200 ppm (Spodoptera littoralis) | percent effect (mortality or growth inhibition) at 200 ppm (Plutella xylostella) | percent effect (mortality or growth inhibition) at 200 ppm (Diabrotica Balteata) | mortality at 200 ppm (Thrips tabaci) | mortality at 200 ppm (Tetranychus urticae) | mortality at 200 ppm (Myzus persicae)

CCOC1=NOC(N(C(=O)OC(C)(C)C)C(=O)c2ccc(C3=NO[C@@](c4cc(Cl)c(F)c(Cl)c4)(C(F)(F)F)C3)cc2C)C1 (stereo partly drawn) [Compound A132, tert-butyl N-[4-[(5S)-5-(3,5-dichloro-4-fluoro-phenyl)-5-(trifluoromethyl)-4H-isoxazol-3-yl]-2-methyl-benzoyl]-N-(3-ethoxy-4,5-dihydroisoxazol-5-yl)carbamate]
≥ 80%: percent control (mortality, anti-feedant effect or growth inhibition) at 200 ppm (Spodoptera littoralis) | percent effect (mortality or growth inhibition) at 200 ppm (Plutella xylostella) | percent effect (mortality or growth inhibition) at 200 ppm (Diabrotica Balteata) | mortality at 200 ppm (Thrips tabaci) | mortality at 200 ppm (Tetranychus urticae) | mortality at 200 ppm (Myzus persicae)

CCOC1=NOC(N(C=O)C(=O)c2ccc(C3=NO[C@@](c4cc(Cl)cc(Cl)c4)(C(F)(F)F)C3)cc2C)C1 (stereo partly drawn) [Compound A133, 4-[(5S)-5-(3,5-dichlorophenyl)-5-(trifluoromethyl)-4H-isoxazol-3-yl]-N-(3-ethoxy-4,5-dihydroisoxazol-5-yl)-N-formyl-2-methyl-benzamide]
≥ 80%: percent control (mortality, anti-feedant effect or growth inhibition) at 200 ppm (Spodoptera littoralis) | percent effect (mortality or growth inhibition) at 200 ppm (Plutella xylostella) | percent effect (mortality or growth inhibition) at 200 ppm (Diabrotica Balteata) | mortality at 200 ppm (Thrips tabaci) | mortality at 200 ppm (Tetranychus urticae) | mortality at 200 ppm (Myzus persicae)

COC1=NOC(N(C=O)C(=O)c2ccc(C3=NO[C@@](c4cc(Cl)cc(Cl)c4)(C(F)(F)F)C3)cc2C)C1 (stereo partly drawn) [Compound A134]
≥ 80%: percent control (mortality, anti-feedant effect or growth inhibition) at 200 ppm (Spodoptera littoralis) | percent effect (mortality or growth inhibition) at 200 ppm (Plutella xylostella) | percent effect (mortality or growth inhibition) at 200 ppm (Diabrotica Balteata) | mortality at 200 ppm (Thrips tabaci) | mortality at 200 ppm (Tetranychus urticae) | mortality at 200 ppm (Myzus persicae)

Cc1cc(C2=NO[C@@](c3cc(Cl)cc(Cl)c3)(C(F)(F)F)C2)ccc1C(=O)NC1CC(C(F)(F)F)=NO1 (stereo partly drawn) [Compound A136, 4-[(5S)-5-(3,5-dichlorophenyl)-5-(trifluoromethyl)-4H-isoxazol-3-yl]-2-methyl-N-[3-(trifluoromethyl)-4,5-dihydroisoxazol-5-yl]benzamide]
≥ 80%: percent control (mortality, anti-feedant effect or growth inhibition) at 200 ppm (Spodoptera littoralis) | percent effect (mortality or growth inhibition) at 200 ppm (Plutella xylostella) | percent effect (mortality or growth inhibition) at 200 ppm (Diabrotica Balteata) | mortality at 200 ppm (Thrips tabaci) | mortality at 200 ppm (Tetranychus urticae) | mortality at 200 ppm (Myzus persicae)

CCC1=NOC(NC(=O)c2ccc(C3=NO[C@@](c4cc(Cl)cc(Cl)c4)(C(F)(F)F)C3)cc2C)C1 (stereo partly drawn) [Compound A137]
≥ 80%: percent control (mortality, anti-feedant effect or growth inhibition) at 200 ppm (Spodoptera littoralis) | percent effect (mortality or growth inhibition) at 200 ppm (Plutella xylostella) | percent effect (mortality or growth inhibition) at 200 ppm (Diabrotica Balteata) | mortality at 200 ppm (Thrips tabaci) | mortality at 200 ppm (Tetranychus urticae) | mortality at 200 ppm (Myzus persicae)

Cc1cc(C2=NO[C@@](c3cc(Cl)cc(Cl)c3)(C(F)(F)F)C2)ccc1C(=O)N(C=O)C1CC(C(F)(F)F)=NO1 (stereo partly drawn) [Compound A138]
≥ 80%: percent control (mortality, anti-feedant effect or growth inhibition) at 200 ppm (Spodoptera littoralis) | percent effect (mortality or growth inhibition) at 200 ppm (Plutella xylostella) | percent effect (mortality or growth inhibition) at 200 ppm (Diabrotica Balteata) | mortality at 200 ppm (Thrips tabaci) | mortality at 200 ppm (Tetranychus urticae) | mortality at 200 ppm (Myzus persicae)

CCC1=NOC(N(C=O)C(=O)c2ccc(C3=NO[C@@](c4cc(Cl)cc(Cl)c4)(C(F)(F)F)C3)cc2C)C1 (stereo partly drawn) [Compound A139]
≥ 80%: percent control (mortality, anti-feedant effect or growth inhibition) at 200 ppm (Spodoptera littoralis) | percent effect (mortality or growth inhibition) at 200 ppm (Plutella xylostella) | percent effect (mortality or growth inhibition) at 200 ppm (Diabrotica Balteata) | mortality at 200 ppm (Thrips tabaci) | mortality at 200 ppm (Tetranychus urticae) | mortality at 200 ppm (Myzus persicae)

CC1=NOC(N(C=O)C(=O)c2ccc(C3=NO[C@@](c4cc(Cl)cc(Cl)c4)(C(F)(F)F)C3)cc2C)C1 (stereo partly drawn) [Compound A140]
≥ 80%: percent control (mortality, anti-feedant effect or growth inhibition) at 200 ppm (Spodoptera littoralis) | percent effect (mortality or growth inhibition) at 200 ppm (Plutella xylostella) | percent effect (mortality or growth inhibition) at 200 ppm (Diabrotica Balteata) | mortality at 200 ppm (Thrips tabaci) | mortality at 200 ppm (Tetranychus urticae) | mortality at 200 ppm (Myzus persicae)

CC1=NOC(NC(=O)c2ccc(C3=NO[C@@](c4cc(Cl)cc(Cl)c4)(C(F)(F)F)C3)cc2C)C1 (stereo partly drawn) [Compound A141]
≥ 80%: percent control (mortality, anti-feedant effect or growth inhibition) at 200 ppm (Spodoptera littoralis) | percent effect (mortality or growth inhibition) at 200 ppm (Plutella xylostella) | percent effect (mortality or growth inhibition) at 200 ppm (Diabrotica Balteata) | mortality at 200 ppm (Thrips tabaci) | mortality at 200 ppm (Tetranychus urticae) | mortality at 200 ppm (Myzus persicae)

Cc1cc(C2=NO[C@@](c3cc(Cl)cc(C(F)(F)F)c3)(C(F)(F)F)C2)ccc1C(=O)N(C=O)C1CC(Br)=NO1 (stereo partly drawn) [Compound A142, N-(3-bromo-4,5-dihydroisoxazol-5-yl)-4-[(5S)-5-[3-chloro-5-(trifluoromethyl)phenyl]-5-(trifluoromethyl)-4H-isoxazol-3-yl]-N-formyl-2-methyl-benzamide]
≥ 80%: percent control (mortality, anti-feedant effect or growth inhibition) at 200 ppm (Spodoptera littoralis) | percent effect (mortality or growth inhibition) at 200 ppm (Plutella xylostella) | percent effect (mortality or growth inhibition) at 200 ppm (Diabrotica Balteata) | mortality at 200 ppm (Thrips tabaci) | mortality at 200 ppm (Tetranychus urticae) | mortality at 200 ppm (Myzus persicae)

Cc1cc(C2=NO[C@@](c3cc(Cl)c(Cl)c(Cl)c3)(C(F)(F)F)C2)ccc1C(=O)NC1CC(C#N)=NO1 (stereo partly drawn) [Compound A145, N-(3-cyano-4,5-dihydroisoxazol-5-yl)-2-methyl-4-[(5S)-5-(3,4,5-trichlorophenyl)-5-(trifluoromethyl)-4H-isoxazol-3-yl]benzamide]
≥ 80%: percent control (mortality, anti-feedant effect or growth inhibition) at 200 ppm (Spodoptera littoralis) | percent effect (mortality or growth inhibition) at 200 ppm (Plutella xylostella) | percent effect (mortality or growth inhibition) at 200 ppm (Diabrotica Balteata) | mortality at 200 ppm (Thrips tabaci) | mortality at 200 ppm (Tetranychus urticae) | mortality at 200 ppm (Myzus persicae)
